Each compound was assayed against Carbonic anhydrase 1 (Homo sapiens, UniProt P00915) (assay: Inhibition of human carbonic anhydrase-1 incubated for 15 mins by stopped-flow CO2 hydration assay).
Sequence of Carbonic anhydrase 1 (P00915 whole entry): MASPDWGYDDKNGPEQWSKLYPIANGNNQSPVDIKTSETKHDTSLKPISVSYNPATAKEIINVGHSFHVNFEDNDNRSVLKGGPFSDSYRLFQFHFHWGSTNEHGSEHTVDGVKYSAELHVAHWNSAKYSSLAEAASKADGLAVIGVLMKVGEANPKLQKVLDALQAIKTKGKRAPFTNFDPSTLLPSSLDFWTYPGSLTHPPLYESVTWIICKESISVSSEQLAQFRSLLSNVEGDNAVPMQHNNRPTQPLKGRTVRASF

Ki | Compound
> 10000 nM | CCCN(CCC)S(=O)(=O)c1ccc(C(=O)N[C@@H](CCSC)C(N)=O)cc1

These compounds were tested against Carbonic anhydrase 9 (Homo sapiens, UniProt Q16790) (assay: Inhibition of human carbonic anhydrase-9 incubated for 15 mins by stopped-flow CO2 hydration assay).

Ki | Compound
27 nM | CCCN(CCC)S(=O)(=O)c1ccc(C(=O)N[C@@H](C)C(=O)O)cc1
210 nM | CCCN(CCC)S(=O)(=O)c1ccc(C(=O)N[C@@H](Cc2ccccc2)C(=O)O)cc1
27 nM | CCCN(CCC)S(=O)(=O)c1ccc(C(=O)N[C@@H](CO)C(=O)O)cc1
32 nM | CCCN(CCC)S(=O)(=O)c1ccc(C(=O)N[C@@H](Cc2ccc(O)cc2)C(=O)O)cc1
31 nM | CCCN(CCC)S(=O)(=O)c1ccc(C(=O)N[C@@H](CCC(=O)O)C(=O)O)cc1
32 nM | CCCN(CCC)S(=O)(=O)c1ccc(C(=O)N[C@@H](CCCCN)C(=O)O)cc1
26 nM | CCCN(CCC)S(=O)(=O)c1ccc(C(=O)N[C@@H](CCCNC(=N)N)C(=O)O)cc1
61 nM | CCCN(CCC)S(=O)(=O)c1ccc(C(=O)N[C@@H](CCSC)C(=O)O)cc1
150 nM | CCCN(CCC)S(=O)(=O)c1ccc(C(=O)N[C@@H](CC(C)C)C(N)=O)cc1
25 nM | CCCN(CCC)S(=O)(=O)c1ccc(C(=O)N[C@@H](Cc2ccccc2)C(N)=O)cc1
21 nM | CCCN(CCC)S(=O)(=O)c1ccc(C(=O)N[C@@H](Cc2ccc(O)cc2)C(N)=O)cc1
27 nM | CCCN(CCC)S(=O)(=O)c1ccc(C(=O)N[C@@H](CCCCN)C(N)=O)cc1
20 nM | CCCN(CCC)S(=O)(=O)c1ccc(C(=O)N[C@@H](CCCNC(=N)N)C(N)=O)cc1

Compound | Ki
CCCN(CCC)S(=O)(=O)c1ccc(C(=O)N[C@@H](CC(C)C)C(=O)O)cc1 | 26 nM
CCCN(CCC)S(=O)(=O)c1ccc(C(=O)N[C@@H](Cc2c[nH]c3ccccc23)C(=O)O)cc1 | 25 nM
CCCN(CCC)S(=O)(=O)c1ccc(C(=O)NCC(N)=O)cc1 | 1.9 nM
CCCN(CCC)S(=O)(=O)c1ccc(C(=O)N[C@@H](C)C(N)=O)cc1 | 15 nM
CCCN(CCC)S(=O)(=O)c1ccc(C(=O)N[C@@H](CO)C(N)=O)cc1 | 2.6 nM
CCCN(CCC)S(=O)(=O)c1ccc(C(=O)N[C@@H](CS)C(N)=O)cc1 | 28 nM

The compounds below were run against Carbonic anhydrase 12 (Homo sapiens, UniProt O43570) (assay: Inhibition of human carbonic anhydrase-12 incubated for 15 mins by stopped-flow CO2 hydration assay).
Sequence of Carbonic anhydrase 12 (O43570 whole entry): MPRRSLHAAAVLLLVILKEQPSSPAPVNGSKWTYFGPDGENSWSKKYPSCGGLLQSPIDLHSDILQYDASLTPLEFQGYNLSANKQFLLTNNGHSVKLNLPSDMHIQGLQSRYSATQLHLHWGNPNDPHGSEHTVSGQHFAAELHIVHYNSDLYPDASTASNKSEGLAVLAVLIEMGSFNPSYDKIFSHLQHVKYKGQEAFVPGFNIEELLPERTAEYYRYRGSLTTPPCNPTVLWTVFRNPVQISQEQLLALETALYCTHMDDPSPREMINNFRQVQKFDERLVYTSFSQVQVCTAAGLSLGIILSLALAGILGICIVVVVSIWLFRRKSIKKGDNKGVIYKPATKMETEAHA

Ki | Compound
> 10000 nM | CCCN(CCC)S(=O)(=O)c1ccc(C(=O)NCC(=O)O)cc1
